Eleven compounds from the supplement of paper PMC8967900 can be followed below.

Molecules are shown by their SMILES.
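Further: ALL cell lines in 384-well plates, five doses spanning 10,000-fold, each plate scaled between vehicle and 100 µmol/L benzalkonium chloride controls, sDSS an adapted area-under-curve metric.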

One assay has as its system KASUMI-2. Nature of the assay: selective drug sensitivity score (sDSS, relative to normal bone marrow) (sDSS (score)); higher = more potent and effective on the cell line relative to normal bone marrow cells. The settings on record: 72 h.
As for `CCN(CC)CCNC(=O)c1c(C)[nH]c(/C=C2\C(=O)Nc3ccc(F)cc32)c1C` [Sunitinib] (top concentration 1000 nM), the “selective drug sensitivity score” value is -1.44.

For `CC(C)Oc1ccc(-c2nn([C@@H](C)c3oc4ccc(F)cc4c(=O)c3-c3cccc(F)c3)c3ncnc(N)c23)cc1F` [TGR-1202] (top concentration 2500 nM), the “selective drug sensitivity score” value is -2.36.

`CN(C(=O)c1ccc(F)cc1C(F)(F)F)C1CCN(c2nnc(-c3ccnn3C)c3ccccc23)CC1` [Taladegib] (top concentration 10000 nM): the “selective drug sensitivity score” value worked out at 11.

Take `COc1cc(Nc2ncc(F)c(Nc3ccc4c(n3)NC(=O)C(C)(C)O4)n2)cc(OC)c1OC` [Tamatinib] (top concentration 10000 nM): the “selective drug sensitivity score” value is -5.42.

Take `Nc1cc(F)ccc1NC(=O)c1ccc(CNC(=O)/C=C/c2cccnc2)cc1` [Tucidinostat] (top concentration 10000 nM): the “selective drug sensitivity score” value came out at 8.84.

In the case of `CN[C@@H]1C[C@H]2O[C@@](C)([C@@H]1OC)n1c3ccccc3c3c4c(c5c6ccccc6n2c5c31)C(=O)N[C@H]4O` [UCN-01] (top concentration 10000 nM), the “selective drug sensitivity score” value is 2.84.

For `CC(C)Nc1cc(-c2c[nH]c(C(=O)N[C@H](CO)c3cccc(Cl)c3)c2)c(Cl)cn1` [Ulixertinib] (top concentration 10000 nM), the “selective drug sensitivity score” value stood at 7.82.

For the compound `Cn1ncc(Cl)c1-c1cc(C(=O)N[C@H](CN)Cc2ccc(F)c(F)c2)oc1Cl` [Uprosertib] (top concentration 10000 nM), the “selective drug sensitivity score” value came to 8.3.

On to `C=CC(=O)N1CC/C(=C\c2ccc(F)c([N+](=O)[O-])c2)C(=O)/C(=C/c2ccc(F)c([N+](=O)[O-])c2)C1` [VLX1570] (top concentration 10000 nM), for which the “selective drug sensitivity score” value was -2.62.

Turning to `C[C@@H]1COC(Nc2ccc3ncnc(Nc4ccc(OCc5nccs5)c(Cl)c4)c3c2)=N1` [Varlitinib] (top concentration 10000 nM), the “selective drug sensitivity score” value was -0.18.

Regarding `CNC(=O)c1cccc(-c2ccc3c(N4CCOC[C@@H]4C)nc(N4CCOC[C@@H]4C)nc3n2)c1` [Vistusertib] (top concentration 10000 nM), the “selective drug sensitivity score” value came to 15.

Another assay has as its system REH. Described as above. The settings on record: 72 h.
For the compound `CCN(CC)CCNC(=O)c1c(C)[nH]c(/C=C2\C(=O)Nc3ccc(F)cc32)c1C` [Sunitinib] (top concentration 1000 nM), the “selective drug sensitivity score” value was -1.44.

In the case of `CC(C)Oc1ccc(-c2nn([C@@H](C)c3oc4ccc(F)cc4c(=O)c3-c3cccc(F)c3)c3ncnc(N)c23)cc1F` [TGR-1202] (top concentration 2500 nM), the “selective drug sensitivity score” value is -1.76.

Consider `CN(C(=O)c1ccc(F)cc1C(F)(F)F)C1CCN(c2nnc(-c3ccnn3C)c3ccccc23)CC1` [Taladegib] (top concentration 10000 nM), for which the “selective drug sensitivity score” value turned out to be 3.58.

`COc1cc(Nc2ncc(F)c(Nc3ccc4c(n3)NC(=O)C(C)(C)O4)n2)cc(OC)c1OC` [Tamatinib] (top concentration 10000 nM): the “selective drug sensitivity score” value is -2.22.

As for `Nc1cc(F)ccc1NC(=O)c1ccc(CNC(=O)/C=C/c2cccnc2)cc1` [Tucidinostat] (top concentration 10000 nM), the “selective drug sensitivity score” value amounted to 3.34.

Take `CN[C@@H]1C[C@H]2O[C@@](C)([C@@H]1OC)n1c3ccccc3c3c4c(c5c6ccccc6n2c5c31)C(=O)N[C@H]4O` [UCN-01] (top concentration 10000 nM): the “selective drug sensitivity score” value is 5.24.

`CC(C)Nc1cc(-c2c[nH]c(C(=O)N[C@H](CO)c3cccc(Cl)c3)c2)c(Cl)cn1` [Ulixertinib] (top concentration 10000 nM): the “selective drug sensitivity score” value is -1.08.

In the case of `Cn1ncc(Cl)c1-c1cc(C(=O)N[C@H](CN)Cc2ccc(F)c(F)c2)oc1Cl` [Uprosertib] (top concentration 10000 nM), the “selective drug sensitivity score” value turned out to be 9.6.

With `C=CC(=O)N1CC/C(=C\c2ccc(F)c([N+](=O)[O-])c2)C(=O)/C(=C/c2ccc(F)c([N+](=O)[O-])c2)C1` [VLX1570] (top concentration 10000 nM), the “selective drug sensitivity score” value is 1.98.

`C[C@@H]1COC(Nc2ccc3ncnc(Nc4ccc(OCc5nccs5)c(Cl)c4)c3c2)=N1` [Varlitinib] (top concentration 10000 nM): the “selective drug sensitivity score” value turned out to be 7.62.

As to `CNC(=O)c1cccc(-c2ccc3c(N4CCOC[C@@H]4C)nc(N4CCOC[C@@H]4C)nc3n2)c1` [Vistusertib] (top concentration 10000 nM), the “selective drug sensitivity score” value is 9.32.

The next assay relates to MHH-CALL-4. The description is as above. The settings on record: 72 h.
Take `CCN(CC)CCNC(=O)c1c(C)[nH]c(/C=C2\C(=O)Nc3ccc(F)cc32)c1C` [Sunitinib] (top concentration 1000 nM): the “selective drug sensitivity score” value was determined as 2.06.

As for `CC(C)Oc1ccc(-c2nn([C@@H](C)c3oc4ccc(F)cc4c(=O)c3-c3cccc(F)c3)c3ncnc(N)c23)cc1F` [TGR-1202] (top concentration 2500 nM), the “selective drug sensitivity score” value was -0.06.

Take `CN(C(=O)c1ccc(F)cc1C(F)(F)F)C1CCN(c2nnc(-c3ccnn3C)c3ccccc23)CC1` [Taladegib] (top concentration 10000 nM): the “selective drug sensitivity score” value is -1.12.

On to `COc1cc(Nc2ncc(F)c(Nc3ccc4c(n3)NC(=O)C(C)(C)O4)n2)cc(OC)c1OC` [Tamatinib] (top concentration 10000 nM), for which the “selective drug sensitivity score” value was -4.62.

`Nc1cc(F)ccc1NC(=O)c1ccc(CNC(=O)/C=C/c2cccnc2)cc1` [Tucidinostat] (top concentration 10000 nM): the “selective drug sensitivity score” value is 9.94.

For `CN[C@@H]1C[C@H]2O[C@@](C)([C@@H]1OC)n1c3ccccc3c3c4c(c5c6ccccc6n2c5c31)C(=O)N[C@H]4O` [UCN-01] (top concentration 10000 nM), the “selective drug sensitivity score” value was found to be 8.14.

Consider `CC(C)Nc1cc(-c2c[nH]c(C(=O)N[C@H](CO)c3cccc(Cl)c3)c2)c(Cl)cn1` [Ulixertinib] (top concentration 10000 nM), for which the “selective drug sensitivity score” value was determined as 2.22.

As for `Cn1ncc(Cl)c1-c1cc(C(=O)N[C@H](CN)Cc2ccc(F)c(F)c2)oc1Cl` [Uprosertib] (top concentration 10000 nM), the “selective drug sensitivity score” value stood at 4.6.

As for `C=CC(=O)N1CC/C(=C\c2ccc(F)c([N+](=O)[O-])c2)C(=O)/C(=C/c2ccc(F)c([N+](=O)[O-])c2)C1` [VLX1570] (top concentration 10000 nM), the “selective drug sensitivity score” value is -1.22.

For `C[C@@H]1COC(Nc2ccc3ncnc(Nc4ccc(OCc5nccs5)c(Cl)c4)c3c2)=N1` [Varlitinib] (top concentration 10000 nM), the “selective drug sensitivity score” value was 0.82.

As for `CNC(=O)c1cccc(-c2ccc3c(N4CCOC[C@@H]4C)nc(N4CCOC[C@@H]4C)nc3n2)c1` [Vistusertib] (top concentration 10000 nM), the “selective drug sensitivity score” value was 5.82.
